Values after ≈ are worked out from the molar mass of the structure shown. Each block holds one compound with its values, some of them ahead of it.
Assays:
Assay in all cases: ≥ marks a high value that may be exact or a test limit, other limits are often not marked, values filed in µg/mL are converted to µM
[1] = test system: Staphylococcus aureus ATCC 25923
[2] = test system: Enterococcus faecalis 981
[3] = test system: Escherichia coli ATCC 25922
[4] = test system: Candida albicans ATCC 10231
[5] = test system: Bacillus licheniformis X39
[6] = test system: Staphylococcus carnosus KHS
[7] = test system: Psychrobacter faecalis X29
[8] = test system: Rhodococcus rhodochrous X15
Serratia rubidaea X01 = test system: Serratia rubidaea X01
Candida albicans 3153A = test system: Candida albicans 3153A
[9] = test system: Staphylococcus aureus 1056
Escherichia coli O157:H7 = test system: Escherichia coli O157:H7
Escherichia coli = test system: Escherichia coli
Pseudomonas haemolytica = test system: Pseudomonas haemolytica
Micrococcus luteus = test system: Micrococcus luteus
Klebsiella aerogenes = test system: Klebsiella aerogenes
Proteus mirabilis = test system: Proteus mirabilis
[10] = test system: Escherichia coli NCTC 10418
Acinetobacter sp. = test system: Acinetobacter sp.
[11] = test system: Escherichia coli NCTC 8007
Klebsiella sp. = test system: Klebsiella sp.
Providencia stuartii = test system: Providencia stuartii
[12] = test system: Staphylococcus aureus NCTC 10571
[13] = test system: Staphylococcus epidermidis
Pasteurella multocida = test system: Pasteurella multocida
Bacillus cereus = test system: Bacillus cereus
[14] = test system: Escherichia coli ATCC 23506
[15] = test system: Enterococcus faecalis PCM 2673
Streptococcus uberis = test system: Streptococcus uberis
[16] = test system: Streptococcus pneumoniae ATCC 49619
[17] = test system: Candida glabrata ATCC 15126
Staphylococcus aureus = test system: Staphylococcus aureus
[18] = test system: Pseudomonas aeruginosa ATCC 9027
Listeria innocua = test system: Listeria innocua
[19] = test system: Aspergillus niger ATCC 16404
[20] = test system: Klebsiella pneumoniae ATCC 700603
Leuconostoc lactis = test system: Leuconostoc lactis
[21] = test system: Staphylococcus aureus ATCC 9144
[22] = test system: Pseudomonas aeruginosa 1.50
[23] = test system: Staphylococcus aureus ATCC 2592

Structure (SMILES): CC[C@H](C)[C@H](NC(=O)[C@H](CCCCN)NC(=O)[C@@H]1CCCN1C(=O)[C@H](CC(C)C)NC(=O)[C@H](Cc1ccccc1)NC(=O)[C@H](CC(N)=O)NC(=O)[C@H](C)NC(=O)[C@H](C)NC(=O)[C@H](CC(C)C)NC(=O)CNC(=O)[C@H](C)NC(=O)[C@@H](NC(=O)[C@@H](NC(=O)[C@@H]1CCCN1C(=O)[C@H](CC(C)C)NC(=O)[C@@H](N)Cc1ccccc1)[C@@H](C)CC)C(C)C)C(=O)N[C@H](C(=O)N[C@H]1CSSC[C@@H](C(=O)O)NC(=O)[C@H](CCCCN)NC(=O)[C@H](CCCCN)NC(=O)[C@H]([C@@H](C)O)NC(=O)[C@H]([C@@H](C)CC)NC(=O)[C@H](CCCCN)NC1=O)C(C)C [FLPIVAGLAANFLPKIVCKITKKC]
MIC [1]: 9 µM (≈ 23.3 µg/mL)
MIC [2]: 19 µM (≈ 49.1 µg/mL)
MIC [3]: 150 µM (≈ 388 µg/mL)
MIC [4]: 150 µM (≈ 388 µg/mL)
MIC [5]: 9 µM (≈ 23.3 µg/mL)
MIC [6]: 9 µM (≈ 23.3 µg/mL)
MIC [7]: 19 µM (≈ 49.1 µg/mL)
MIC [8]: 1.2 µM (≈ 3.1 µg/mL)
MIC (Serratia rubidaea X01): 19 µM (≈ 49.1 µg/mL)

Structure (SMILES): CC[C@H](C)[C@H](NC(=O)CNC(=O)[C@H](CO)NC(=O)[C@H](C)NC(=O)[C@H](CC(C)C)NC(=O)[C@H](CC(=O)O)NC(=O)CNC(=O)[C@H](C)NC(=O)[C@H](C)NC(=O)[C@H](CO)NC(=O)[C@H](CCCCN)NC(=O)[C@@H](NC(=O)[C@H](CCCCN)NC(=O)[C@H](CCC(N)=O)NC(=O)[C@H](Cc1c[nH]c2ccccc12)NC(=O)[C@H](CC(C)C)NC(=O)CN)[C@@H](C)CC)C(=O)N[C@H](C(=O)N[C@@H](CCC(=O)O)C(=O)N[C@@H](C)C(=O)N[C@H](C(=O)N[C@@H](CCCCN)C(=O)N[C@@H](CO)C(N)=O)[C@@H](C)CC)C(C)C [GLWQKIKSAAGDLASGIVEAIKS]
MIC (Escherichia coli): 21.3 µM (≈ 50 µg/mL)
MIC (Pseudomonas haemolytica): 0.171 µM (≈ 0.4 µg/mL)
MIC (Micrococcus luteus): 2.56 µM (≈ 6 µg/mL)

Structure (SMILES): CSCC[C@H](NC(=O)[C@H](CC(N)=O)NC(=O)[C@H](CCCN=C(N)N)NC(=O)[C@H](CCC(N)=O)NC(=O)[C@H](Cc1c[nH]c2ccccc12)NC(=O)[C@H](CCC(N)=O)NC(=O)[C@@H](N)Cc1ccccc1)C(=O)N[C@@H](CCCN=C(N)N)C(=O)N[C@@H](CCCCN)C(=O)N[C@H](C(=O)N[C@@H](CCCN=C(N)N)C(=O)O)C(C)C [FQWQRNMRKVR]
MIC (Klebsiella aerogenes): ≥ 290 µM
MIC (Proteus mirabilis): ≥ 1000 µM
MIC [10]: ≥ 579 µM
MIC (Acinetobacter sp.): 0.86 µM (≈ 1.33 µg/mL)
MIC [11]: ≥ 290 µM
MIC (Klebsiella sp.): ≥ 290 µM
MIC (Providencia stuartii): ≥ 1000 µM
MIC [12]: 14 µM (≈ 21.7 µg/mL)

Structure (SMILES): CC[C@H](C)[C@H](NC(=O)CNC(=O)[C@@H](NC(=O)CNC(=O)[C@H](C)NC(=O)CNC(=O)[C@H](CCCN=C(N)N)NC(=O)[C@H](C)NC(=O)[C@@H](NC(=O)CNC(=O)[C@H](CC(C)C)NC(=O)[C@H](C)NC(=O)[C@@H](NC(=O)[C@H](CC(N)=O)NC(=O)[C@H](CCCCN)NC(=O)[C@@H](NC(=O)[C@H](CCCCN)NC(=O)[C@H](CC(=O)O)NC(=O)[C@H](CC(C)C)NC(=O)[C@@H](NC(=O)[C@@H](N)CO)[C@@H](C)CC)[C@@H](C)CC)C(C)C)C(C)C)[C@@H](C)O)C(=O)N[C@@H](CC(C)C)C(=O)N[C@@H](CCCCN)C(=O)N[C@@H](C)C(=O)N[C@@H](CC(C)C)C(=O)N[C@@H](CC(C)C)C(=O)N[C@H]1CSSC[C@@H](C(=O)O)NC(=O)[C@H](CO)NC(=O)[C@H](CCCCN)NC(=O)[C@H](CC(=O)O)NC(=O)[C@H](CC(C)C)NC(=O)[C@H](CCCCN)NC1=O [SILDKIKNVALGVARGAGTGILKALLCKLDKSC]
MIC [22]: 30 µM (≈ 101 µg/mL)
MIC [3]: 30 µM (≈ 101 µg/mL)
MIC [23]: 3.8 µM (≈ 12.8 µg/mL)
MIC [5]: 3.8 µM (≈ 12.8 µg/mL)
MIC [6]: 1.9 µM (≈ 6.4 µg/mL)
MIC [7]: 1.9 µM (≈ 6.4 µg/mL)
MIC [8]: 1.9 µM (≈ 6.4 µg/mL)
MIC (Serratia rubidaea X01): ≥ 60 µM

Next, values leading:

MIC (Candida albicans 3153A): 1.32 µM (≈ 6.19 µg/mL)
MIC [9]: 0.267 µM (≈ 1.25 µg/mL)
MIC (Escherichia coli O157:H7): 0.205 µM (≈ 0.959 µg/mL)
Structure (SMILES): CC[C@H](C)[C@H](NC(=O)[C@H](CC(N)=O)NC(=O)[C@H](CCCCN)NC(=O)[C@@H]1CSSC[C@@H]2NC(=O)[C@H](CCCCN)NC(=O)[C@H](CC(C)C)NC(=O)[C@H](Cc3ccccc3)NC(=O)CNC(=O)[C@@H]3CSSC[C@H](NC(=O)[C@H](CCCCN)NC(=O)CNC(=O)[C@H](CO)NC(=O)[C@H](C(C)C)NC(=O)[C@H](C(C)C)NC(=O)[C@H](Cc4ccccc4)NC(=O)[C@@H]4CCCN4C(=O)[C@H](Cc4ccccc4)NC(=O)[C@H](CO)NC2=O)C(=O)N[C@@H](CO)C(=O)N[C@@H](CCCN=C(N)N)C(=O)N[C@@H](Cc2ccccc2)C(=O)N[C@@H](Cc2ccccc2)C(=O)N[C@@H](Cc2ccccc2)C(=O)N[C@@H](CSSC[C@H](NC(=O)[C@H](CCC(=O)O)NC(=O)[C@H](C)NC(=O)[C@H](CCCCN)NC(=O)[C@H](CC(N)=O)NC(=O)CNC(=O)[C@@H]2CCCN2C(=O)[C@H](C)N)C(=O)N[C@@H](CCC(=O)O)C(=O)N[C@@H](CCCN=C(N)N)C(=O)N[C@@H](CCC(=O)O)C(=O)N[C@@H](CCCCN)C(=O)NCC(=O)N[C@@H](Cc2ccc(O)cc2)C(=O)N3)C(=O)N1)C(=O)N[C@@H](Cc1c[nH]c2ccccc12)C(=O)O [APGNKAECEREKGYCGFLKCSFPFVVSGKCSRFFFCCKNIW]

MIC [13]: ≥ 61.9 µM
MIC [1]: 39.6 µM (≈ 64 µg/mL)
MIC (Pasteurella multocida): ≥ 61.9 µM
MIC (Bacillus cereus): ≥ 61.9 µM
MIC (Escherichia coli): > 61.9 µM
MIC [14]: ≥ 79.2 µM
MIC [15]: ≥ 79.2 µM
MIC (Streptococcus uberis): 30.9 µM (≈ 50 µg/mL)
MIC [3]: 39.6 µM (≈ 64 µg/mL)
MIC [16]: ≥ 79.2 µM
MIC [4]: 79.2 µM (≈ 128 µg/mL)
MIC [17]: ≥ 158 µM
MIC (Staphylococcus aureus): 30.9 µM (≈ 50 µg/mL)
MIC [18]: > 158 µM
MIC (Listeria innocua): ≥ 61.9 µM
MIC [19]: ≥ 158 µM
MIC (Micrococcus luteus): ≥ 61.9 µM
MIC [20]: 19.8 µM (≈ 32 µg/mL)
MIC (Leuconostoc lactis): 7.43 µM (≈ 12 µg/mL)
MIC [21]: ≥ 39.6 µM
Structure (SMILES): CC[C@H](C)[C@H](NC(=O)CNC(=O)CNC(=O)[C@@H](N)CC(C)C)C(=O)N[C@H](C(=O)N[C@@H](CO)C(=O)N[C@@H](C)C(=O)N[C@H](C(=O)N[C@@H](CCCCN)C(=O)N[C@@H](CCCCN)C(=O)N[C@H](C(=O)N[C@H](C(=O)N[C@@H](CC(=O)O)C(=O)N[C@@H](Cc1ccccc1)C(=O)N[C@@H](CC(C)C)C(=O)NCC(N)=O)C(C)C)[C@@H](C)CC)C(C)C)C(C)C [LGGIVSAVKKIVDFLG]
